Results: article PMC7979765, “trans-Translation inhibitors bind to a novel site on the ribosome and clear Neisseria gonorrhoeae in vivo” (Nature Communications, 2021)
Where two headings read alike, the source gives them in different places.

Key:
[1] = Liver microsome stability, dog; format: in vitro ADME; conditions: for half-life: dog, liver microsomes
Experimental: To examine potential for first-pass metabolism of analogs in the liver, the stability of analogs in the presence of liver microsome preparations (Eurofins Discovery for human, dog and rat; Xenotech for mouse) was measured using the method of Kuhnz, et al.[50]. for murine studies and Oback for the dog, human and rat studies. The amount of parent compound remaining after incubation with microsomes in the presence of NADPH over a 30 min time range was measured using a reverse-phase liquid chromatography/mass spectroscopy method that was customized for each compound. Half-lives were calculated using linear regression analysis of several time points.

[2] = biological target: T1, Cycloogenase COX-1 (Homo sapiens, UniProt P23219); experiment: Receptor Profiling 116030; format: biochemical
T1 construct: Eurofins Discovery Services (contract assay) 116030
Experimental: (§1) Several in vitro selectivity assays were performed at Eurofins Discovery Services using established methods and controls that behaved as expected (Supplementary Tables 5 and 6). […] For receptor panel profiling, MBX-4132 was evaluated at 10 μM and activity of >50% (agonist or antagonist; note that negative % inhibition indicates agonism) was scored as active.

[3] = biological target: T2, Phosphodiesterase PDE3A (Homo sapiens, UniProt Q14432); experiment: Receptor Profiling 152300; format: biochemical
T2 construct: Eurofins Discovery Services (contract assay) 152300
Experimental: as §1

[4] = biological target: T3, Dopamine D1 (Homo sapiens, UniProt P21728); experiment: Receptor Profiling 219500; format: binding
T3 construct: purchased Eurofins Discovery Services (Panlabs safety panel)
Experimental: as §1

[5] = biological target: T4, Muscarinic M3 (Homo sapiens, UniProt P20309); experiment: Receptor Profiling 252810; format: binding
T4 construct: purchased Eurofins Discovery Services (Panlabs safety panel)
Experimental: as §1

[6] = biological target: T5, Serotonin (5-hydroxytryptamine) 5-HT3 (Homo sapiens, UniProt P46098); experiment: Receptor Profiling 271910; format: binding
T5 construct: Eurofins Discovery Services (contract assay) 271910
Experimental: as §1

T2 sequence (Q14432 whole entry): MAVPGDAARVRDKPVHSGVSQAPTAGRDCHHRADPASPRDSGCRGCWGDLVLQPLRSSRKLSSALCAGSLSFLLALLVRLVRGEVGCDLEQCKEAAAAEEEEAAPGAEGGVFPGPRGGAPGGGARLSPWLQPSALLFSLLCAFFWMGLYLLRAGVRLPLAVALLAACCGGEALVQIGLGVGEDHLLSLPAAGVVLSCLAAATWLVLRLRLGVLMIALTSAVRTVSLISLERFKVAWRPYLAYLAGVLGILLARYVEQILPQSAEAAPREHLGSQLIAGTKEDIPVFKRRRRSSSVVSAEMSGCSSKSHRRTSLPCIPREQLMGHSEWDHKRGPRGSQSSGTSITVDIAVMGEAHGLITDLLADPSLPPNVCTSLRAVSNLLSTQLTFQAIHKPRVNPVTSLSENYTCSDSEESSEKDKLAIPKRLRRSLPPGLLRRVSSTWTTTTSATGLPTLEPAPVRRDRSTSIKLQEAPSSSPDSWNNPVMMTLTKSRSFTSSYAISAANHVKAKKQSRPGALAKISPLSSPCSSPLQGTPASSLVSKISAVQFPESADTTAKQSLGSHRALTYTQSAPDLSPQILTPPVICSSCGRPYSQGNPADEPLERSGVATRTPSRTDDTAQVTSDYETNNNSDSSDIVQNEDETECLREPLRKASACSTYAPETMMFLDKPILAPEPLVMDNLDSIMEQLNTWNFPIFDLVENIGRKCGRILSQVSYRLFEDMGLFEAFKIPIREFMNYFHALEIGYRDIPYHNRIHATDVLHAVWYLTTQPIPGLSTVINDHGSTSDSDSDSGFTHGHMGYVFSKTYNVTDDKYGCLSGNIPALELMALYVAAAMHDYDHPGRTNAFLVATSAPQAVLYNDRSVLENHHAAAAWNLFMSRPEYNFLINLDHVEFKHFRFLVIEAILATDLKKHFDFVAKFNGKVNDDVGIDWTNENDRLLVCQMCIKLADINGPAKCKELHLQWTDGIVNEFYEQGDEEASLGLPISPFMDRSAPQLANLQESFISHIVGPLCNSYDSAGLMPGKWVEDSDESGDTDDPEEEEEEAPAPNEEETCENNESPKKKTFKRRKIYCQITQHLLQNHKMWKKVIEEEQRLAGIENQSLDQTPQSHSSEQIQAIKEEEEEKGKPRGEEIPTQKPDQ
T1 sequence (P23219 24-599): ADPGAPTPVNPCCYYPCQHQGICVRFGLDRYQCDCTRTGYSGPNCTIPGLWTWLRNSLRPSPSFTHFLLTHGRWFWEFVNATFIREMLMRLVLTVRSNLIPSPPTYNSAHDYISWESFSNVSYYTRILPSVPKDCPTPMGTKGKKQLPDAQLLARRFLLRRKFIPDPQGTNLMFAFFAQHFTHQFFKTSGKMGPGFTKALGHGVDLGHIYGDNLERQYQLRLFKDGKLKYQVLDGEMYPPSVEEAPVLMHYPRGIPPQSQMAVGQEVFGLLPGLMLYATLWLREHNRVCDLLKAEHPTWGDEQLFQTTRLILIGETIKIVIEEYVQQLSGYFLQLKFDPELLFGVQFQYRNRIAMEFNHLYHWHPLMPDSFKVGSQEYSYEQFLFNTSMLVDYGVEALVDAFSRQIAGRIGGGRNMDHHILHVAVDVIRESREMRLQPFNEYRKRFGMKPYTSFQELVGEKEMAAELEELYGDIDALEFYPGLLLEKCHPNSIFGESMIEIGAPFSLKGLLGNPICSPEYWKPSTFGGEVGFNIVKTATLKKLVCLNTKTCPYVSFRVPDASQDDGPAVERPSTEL
T4 sequence (P20309 whole entry): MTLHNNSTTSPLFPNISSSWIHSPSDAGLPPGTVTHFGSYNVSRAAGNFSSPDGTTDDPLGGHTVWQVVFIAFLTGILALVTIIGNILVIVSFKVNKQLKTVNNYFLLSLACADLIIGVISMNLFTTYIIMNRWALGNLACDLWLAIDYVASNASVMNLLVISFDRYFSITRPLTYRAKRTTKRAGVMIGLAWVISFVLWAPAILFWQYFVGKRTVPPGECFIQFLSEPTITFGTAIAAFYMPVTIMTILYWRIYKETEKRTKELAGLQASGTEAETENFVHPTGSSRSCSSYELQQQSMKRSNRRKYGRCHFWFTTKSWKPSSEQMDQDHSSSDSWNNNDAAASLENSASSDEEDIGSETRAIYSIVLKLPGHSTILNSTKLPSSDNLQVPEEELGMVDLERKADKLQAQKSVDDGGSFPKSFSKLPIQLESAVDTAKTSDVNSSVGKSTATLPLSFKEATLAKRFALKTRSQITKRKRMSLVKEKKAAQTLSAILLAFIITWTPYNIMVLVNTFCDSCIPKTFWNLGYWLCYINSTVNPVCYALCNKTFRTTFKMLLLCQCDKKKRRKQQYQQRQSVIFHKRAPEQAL
T5 sequence (P46098 24-478): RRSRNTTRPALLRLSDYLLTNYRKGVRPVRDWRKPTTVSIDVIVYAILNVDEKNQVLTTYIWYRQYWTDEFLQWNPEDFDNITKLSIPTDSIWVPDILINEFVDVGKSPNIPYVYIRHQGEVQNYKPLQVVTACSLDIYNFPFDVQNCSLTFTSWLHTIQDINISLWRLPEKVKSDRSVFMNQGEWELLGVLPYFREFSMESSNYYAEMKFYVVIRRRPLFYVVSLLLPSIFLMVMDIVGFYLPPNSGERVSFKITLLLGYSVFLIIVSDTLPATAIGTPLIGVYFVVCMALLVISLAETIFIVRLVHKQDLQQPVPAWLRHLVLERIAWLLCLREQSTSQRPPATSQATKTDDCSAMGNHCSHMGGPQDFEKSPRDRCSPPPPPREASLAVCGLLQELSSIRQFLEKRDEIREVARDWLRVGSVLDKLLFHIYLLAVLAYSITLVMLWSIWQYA
T3 sequence (P21728 whole entry): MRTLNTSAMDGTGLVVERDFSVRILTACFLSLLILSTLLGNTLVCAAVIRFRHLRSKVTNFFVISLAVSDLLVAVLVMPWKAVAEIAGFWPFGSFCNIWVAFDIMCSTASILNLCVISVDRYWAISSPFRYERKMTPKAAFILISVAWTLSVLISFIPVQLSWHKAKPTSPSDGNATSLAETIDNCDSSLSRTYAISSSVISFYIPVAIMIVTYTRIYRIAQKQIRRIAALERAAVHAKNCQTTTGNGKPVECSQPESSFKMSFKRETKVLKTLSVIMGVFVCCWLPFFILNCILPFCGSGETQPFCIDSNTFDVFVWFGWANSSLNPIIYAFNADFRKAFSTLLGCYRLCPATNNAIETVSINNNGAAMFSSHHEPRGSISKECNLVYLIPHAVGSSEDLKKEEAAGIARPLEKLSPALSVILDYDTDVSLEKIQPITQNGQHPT

O=C(Nc1nnc(-c2ccc(F)cc2)o1)N1CCc2ccccc2C1 [MBX-4132]
Microsomal stability (t½, min) Dog ([1]; Replicate 1/2, Eurofins): >>60 min | half-life ([1]; Average Value, Eurofins, read-out: Microsomal stability (t½, min) Dog): > 60 min | half-life ([1]; Replicate 1/2, Eurofins, read-out: Microsomal stability (t½, min) Dog): > 60 min | half-life ([1]; Reported value, Eurofins, read-out: Microsomal stability (t½, min) Dog): > 120 min | half-life ([1]; read-out: Microsomal Stability (t1/2; min) Dog): > 120 min | inhibition at 10 µM [2]: 8% | inhibition at 10 µM [3]: -6% | inhibition at 10 µM [4]: 26% | inhibition at 10 µM [5]: 5% | inhibition at 10 µM [6]: 4%
